The record followed here is patent publication US11091476B2, “Protein kinase inhibitors, preparation method and medical use thereof” (Gan & Lee Pharmaceuticals, priority 2015, dated 2021).

One test concerns the target CDK6/CyclinD3 (Homo sapiens (Human), UniProt Q00534). The experiment in a line: CDK kinase inhibitory activity, ADP-Glo Kinase Assay, CDK6/CyclinD3. Format: biochemical. Conditions: for CDK1/CDK6: ratio of IC50s, selectivity for CDK6 over CDK1. On the procedure:
(§1) Measurement of CDK kinase inhibitory activity of the compounds of this disclosure.
(§2) In vitro inhibitory effect of the compounds of the disclosure on CDK (CDK1, CDK4 and CDK6) kinase activity was tested by the following method.
(§3) 1.1 Instrument and Kit Information
(§4) 1.2 Experimental Preparation • 1.2.1 Preparation of Kinase Reaction Buffer I: The 5×Reaction Buffer A (Promega; V307A-C) provided in the kit was mixed and diluted with MILLI-Q® H2O and 0.1 M DTT (dithiothreitol) to give 4× kinase buffer, and then MILLI-Q® H2O was further added to finally formulate the solution into 1× Kinase buffer.
(§5) 1 μl of 10 mM standard substance stock solution was taken and added to 9 μl of kinase reaction buffer I and mixed well; then 90 μl of kinase reaction buffer I was added and mixed well; then 100 μl of kinase reaction buffer I was added and mixed well. The final concentration was 50 μM. • b. 40 μl of kinase reaction buffer II was added into B2 to B10 of a 96-well plate, and 50 μl of the above solution was added into B1; • c. 10 μl of solution was taken from well B1, added into B2, and mixed well; then 10 μl of the resulting solution was taken and added into B3, and dilution was carried out in sequence to B9, so as to obtain control solutions that are diluted by 5-fold sequentially. • (2) Preparation of test compound solution: • a. Test compound solutions at a certain concentration were taken, respectively, diluted with kinase reaction buffer I to a final concentration of 50 μM compound solution; • b. 40 μl of kinase reaction buffer II was added into H2 to H10 of the 96-well plate; and 50 μl of the above solution was added into H1; • c. 10 μl of solution was taken from well H1, added into H2, and mixed well; then 10 μl of the resulting solution was taken and added into H3, and dilution was carried out in sequence to H9, so as to obtain test compound solutions that are diluted by 5-fold sequentially. • 1.2.4 Preparation of a mixed solution of reaction substrate and ATP: • a. Preparation of ATP solution: • 200 μl of 0.1 mM ATP solution: 2 μl of 10 mM ATP was added to 198 μl of kinase reaction buffer I; • 300 μl of 50 μM ATP solution: 150 μl of kinase reaction buffer I was added to 150 μl of the above 0.1 mM ATP solution; • b. Preparation of 300 μl of reaction substrate solution: • 150 μl 1 μg/μl reaction substrate stock solution was added to 150 μl kinase reaction buffer I, and mixed well; • c. The above a/b solutions were mixed to obtain mixed solutions, respectively.
(§6) 1.3 Experimental process: • 1.3.1: 2 μl of compound solutions of various concentrations were taken, added to a 384-well plate, and centrifuged 3 minutes; • 1.3.2: 4 μl of kinase solution was added to each well, centrifuged at 5000 rpm and 18° C. for 10 minutes, and shaken on a plate shaker for 10 minutes; • 1.3.3: 4 μl of mixed solution of substrate and ATP was added to each well, centrifuged at 5000 rpm and 18° C. for 10 minutes, and shaken on a plate shaker at 37° C. for 90 minutes; • 1.3.4: The 384-well plate was taken out, and allowed to stand to room temperature; • 1.3.5: 10 μl of ADP-GLO™ reagent was added to each well, centrifuged at 5000 rpm and 18° C. for 18 minutes, and shaken on a plate shaker at 25° C. for 40 minutes, and then the reaction was stopped; • 1.3.6: 20 μl of kinase detection reagent was added to each well, centrifuged at 5000 rpm and 18° C. for 10 minutes, and shaken on a plate shaker at 25° C. for 30 minutes; and • 1.3.7: M1000pro MICROPLATE READER was used to read […] values.
(§7) The inhibition rate of each compound at each concentration point was calculated by the formula as follows and curve fitting was performed by GraphPad Prism 5 software to obtain the IC50 value.

For another test, the target named is CDK1/CyclinA2 (Homo sapiens (Human), UniProt P06493). Briefly: CDK kinase inhibitory activity, ADP-Glo Kinase Assay, CDK1/CyclinA2. Format: biochemical. As for the experimental part:
as §1, §2, §3, §4, §5, §6, §7

Consider `CCC1(C)C(C)=Nc2ccc(-c3nc(Nc4ccc(N5CCN(C)CC5)cn4)ncc3F)cc21` (stereo not drawn) [Example 34, 4-(3-ethyl-2,3-dimethyl-3H-indol-5-yl)-5-fluoro-N-(5-(4-methylpiperazin-1-yl)pyridin-2-yl)pyrimidine-2-amino], for which, at CDK6/CyclinD3, 5.13 nM corresponded to half-maximal inhibition (IC50) and the CDK1/CDK6 was found to be 21.75.

Take `CC1=Nc2ccc(-c3nc(Nc4ccc(C5CCN(C)CC5)cn4)ncc3F)cc2C1(C)C` [Example 37, 5-Fluoro-N-(5-(1-methylpiperidin-4-yl)pyridin-2-yl)-4-(2,3,3-trimethyl-3H-indol-5-yl)pyrimidine-2-amino]: the IC50 at CDK1/CyclinA2 was determined as 73.7 nM. On CDK6/CyclinD3, inhibition was half-maximal at 22.9 nM (IC50) and the CDK1/CDK6 is reported as 3.22.

As for `CCN1CCN(Cc2ccc(Nc3ncc(F)c(-c4cc(F)c5c(c4)C(C)(CC)C(C)=N5)n3)nc2)CC1` (stereo not drawn) [Example 5, 4-(3-ethyl-7-fluoro-2,3-dimethyl-3H-indol-5-yl)-N-(5-((4-ethylpiperazin-1-yl)methyl)pyridin-2-yl)-5-fluoropyrimidine-2-amino], the IC50 against CDK1/CyclinA2 was found to be 439 nM; against CDK6/CyclinD3, 7.53 nM. The CDK1/CDK6 at CDK6/CyclinD3 was determined as 58.23.

As to `CCN1CCN(c2ccc(Nc3ncc(F)c(-c4ccc5c(c4)C(C)(CC)C(C)=N5)n3)nc2)CC1` (stereo not drawn) [Example 36, 4-(3-ethyl-2,3-dimethyl-3H-indol-5-yl)-N-(5-(4-ethylpiperazin-1-yl)pyridin-2-yl)-5-fluoropyrimidine-2-amino], at CDK6/CyclinD3, it took 3.79 nM to reach half-maximal inhibition (IC50) and the CDK1/CDK6 is listed as 26.65.

In the case of `CC1=Nc2c(F)cc(-c3nc(Nc4ccc5c(n4)CCN(C(=O)CO)C5)ncc3F)cc2C12CCCC2` [Example 40, 1-(2-((5-fluoro-4-(7′-fluoro-2′-methylspiro[cyclopentane-1,3′-indol]-5′-yl)pyrimidin-2-yl)amino)-7,8-dihydro-1,6-naphthyridine-6 (5H)-yl)-2-hydroxyacetamide], the IC50 at CDK1/CyclinA2 was determined as 162 nM. On CDK6/CyclinD3, the IC50 amounted to 25 nM and the CDK1/CDK6 came out at 6.47.

As to `CCC1(C)C(C)=Nc2ccc(-c3nc(Nc4ccc(N5CCNCC5)cn4)ncc3F)cc21` (stereo not drawn) [Example 32, 4-(3-ethyl-2,3-dimethyl-3H-indol-5-yl)-5-fluoro-N-(5-(piperazin-1-yl)pyridin-2-yl)pyrimidine-2-amino], at CDK6/CyclinD3, 10.1 nM corresponded to half-maximal inhibition (IC50) and the CDK1/CDK6 amounted to 14.01.

`CCC1(C)C(C)=Nc2c(F)cc(-c3nc(Nc4ccc(C5CCNCC5)cn4)ncc3F)cc21` (stereo not drawn) [Example 11]: at CDK6/CyclinD3, the IC50 worked out at 5.62 nM and the CDK1/CDK6 turned out to be 19.58.

With `CC1=Nc2ccc(-c3nc(Nc4ccc(C5CCN(C)CC5)cn4)ncc3F)cc2C12CCCC2` [Example 23], the IC50 against CDK1/CyclinA2 is 50.3 nM; on CDK6/CyclinD3, 4.53 nM. In addition, the CDK1/CDK6 on CDK6/CyclinD3 is listed as 11.10.

On to `CC1=Nc2c(F)cc(-c3nc(Nc4ccc(C5CCN(C)CC5)c(C)n4)ncc3F)cc2C12CCCC2` [Example 44, N-(5-(1-methylpiperidin-4-yl)-(6-methylpyridin)-2-yl)-5-fluoro-4-(7′-fluoro-2′-methylspiro[cyclopentane-1,3′-indol]-5′-yl)pyrimidine-2-amino], for which the IC50 at CDK6/CyclinD3 came out at 37.5 nM.

Take `CCN1CCC(c2ccc(Nc3ncc(F)c(-c4ccc5c(c4)C4(CCCC4)C(C)=N5)n3)nc2)CC1` [Example 21, N-(5-(1-ethylpiperidin-4-yl)pyridin-2-yl)-5-fluoro-4-(2′-methylspiro[cyclopentane-1,3′-indol]-5′-yl)pyrimidine-2-amino]: it took 135 nM to reach half-maximal inhibition at CDK1/CyclinA2 (IC50). Moreover, at CDK6/CyclinD3, the IC50 amounted to 27.7 nM and the CDK1/CDK6 stood at 4.89.

Turning to `CC1=Nc2c(F)cc(-c3nc(Nc4ccc(C5CCN(C)CC5)cn4)ncc3F)cc2C1(C)C` [Example 31, 5-Fluoro-4-(7-fluoro-2,3,3-trimethyl-3H-indol-5-yl)-N-(5-(1-methylpiperidin-4-yl)pyridin-2-yl)pyrimidine-2-amino], at CDK6/CyclinD3, the IC50 was 58.8 nM.

`CC1=Nc2c(F)cc(-c3nc(Nc4ccc(OC5CCN(C)CC5)cn4)ncc3F)cc2C12CCCC2` [Example 45, N-(5-((1-methylpiperidin-4-yl)oxy)-pyridin-2-yl)-5-fluoro-4-(7′-fluoro-2′-methylspiro[cyclopentane-1,3′-indol]-5′-yl)pyrimidine-2-amino] had an IC50 against CDK6/CyclinD3 of 43.9 nM.

`CC1=Nc2c(F)cc(-c3nc(Nc4ccc(N5CCN(CC6CC6)CC5)cn4)ncc3F)cc2C12CCCC2` [Example 41, N-(5-(4-(cyclopropylmethyl)piperazin-1-yl)pyridin-2-yl)-5-fluoro-4-(7′-fluoro-2′-methylspiro[cyclopentane-1,3′-indol]-5′-yl)pyrimidine-2-amino] gave an IC50 at CDK6/CyclinD3 of 76.6 nM.

For `CCC1(C)C(C)=Nc2ccc(-c3nc(Nc4ccc(C5CCNCC5)cn4)ncc3F)cc21` (stereo not drawn) [Example 33, 4-(3-ethyl-2,3-dimethyl-3H-indol-5-yl)-5-fluoro-N-(5-(piperidin-4-yl)pyridin-2-yl)pyrimidine-2-amino], at CDK6/CyclinD3, half-maximal inhibition (IC50) required 15.6 nM and the CDK1/CDK6 was 10.65.

Turning to `CCN1CCN(c2ccc(Nc3ncc(F)c(-c4cc(F)c5c(c4)C(C)(CC)C(C)=N5)n3)nc2)CC1` (stereo not drawn) [Example 19, 4-(3-ethyl-7-fluoro-2,3-dimethyl-3H-indol-5-yl)-N-(5-(4-ethylpiperazin-1-yl)pyridin-2-yl)-5-fluoropyrimidine-2-amino], on CDK6/CyclinD3, the IC50 came out at 65.5 nM and the CDK1/CDK6 was found to be 0.99.

At CDK6/CyclinD3, `CCN1CCN(Cc2ccc(Nc3ncc(F)c(-c4cc(F)c5c(c4)C(C)(C)C(C)=N5)n3)nc2)CC1` [Example 2, N-(5-((4-ethylpiperazin-1-yl)methyl)pyridin-2-yl)-5-fluoro-4-(7-fluoro-2,3,3-trimethyl-3H-indol-5-yl)pyrimidine-2-amino] had an IC50 of 159 nM.

On CDK6/CyclinD3, `CCC1(C)C(C)=Nc2c(F)cc(-c3nc(Nc4ccc(CN5CCN(C)CC5)cn4)ncc3F)cc21` (stereo not drawn) [Example 42, 4-(3-ethyl-7-fluoro-2,3-dimethyl-3H-indol-5-yl)-5-fluoro-N-(5-((4-methylpiperazin-1-yl)methyl)pyridin-2-yl)pyrimidine-2-amino] returned an IC50 of 2.33 nM.

At CDK6/CyclinD3, `CCN1CCN(Cc2ccc(Nc3ncc(F)c(-c4cc(F)c5c(c4)C4(CCC4)C(C)=N5)n3)nc2)CC1` [Example 4, N-(5-((4-ethylpiperazin-1-yl)methyl)pyridin-2-yl)-5-fluoro-4-(7′-fluoro-2′-methylspiro[cyclobutane-1,3′-indol]-5′-yl)aminopyrimidine-2-amino] came in with an IC50 of 2150 nM.

On to `CCN1CCN(c2ccc(Nc3ncc(F)c(-c4cc(F)c5c(c4)C4(CCCC4)C(C)=N5)n3)nc2)CC1` [Example 27, N-(5-(4-ethylpiperazin-1-yl)pyridin-2-yl)-5-fluoro-4-(7′-fluoro-2′-methylspiro [cyclopentane-1,3′-indol]-5′-yl)pyrimidine-2-amino], for which the IC50 against CDK6/CyclinD3 turned out to be 16.2 nM.

The compound `CCN1CCN(Cc2ccc(Nc3nccc(-c4cc(F)c5c(c4)C4(CCCC4)C(C)=N5)n3)nc2)CC1` [Example 8, N-(5-((4-ethylpiperazin-1-yl)methyl)pyridin-2-yl)-4-(7′-fluoro-2′-methylspiro [cyclopentane-1,3′-indol]-5′-yl)pyrimidine-2-amino] returned an IC50 against CDK6/CyclinD3 of 85.8 nM.
